In experiment [1] the target is T1, RARβ (Homo sapiens, UniProt P10826).
T1 sequence (P10826 1-455): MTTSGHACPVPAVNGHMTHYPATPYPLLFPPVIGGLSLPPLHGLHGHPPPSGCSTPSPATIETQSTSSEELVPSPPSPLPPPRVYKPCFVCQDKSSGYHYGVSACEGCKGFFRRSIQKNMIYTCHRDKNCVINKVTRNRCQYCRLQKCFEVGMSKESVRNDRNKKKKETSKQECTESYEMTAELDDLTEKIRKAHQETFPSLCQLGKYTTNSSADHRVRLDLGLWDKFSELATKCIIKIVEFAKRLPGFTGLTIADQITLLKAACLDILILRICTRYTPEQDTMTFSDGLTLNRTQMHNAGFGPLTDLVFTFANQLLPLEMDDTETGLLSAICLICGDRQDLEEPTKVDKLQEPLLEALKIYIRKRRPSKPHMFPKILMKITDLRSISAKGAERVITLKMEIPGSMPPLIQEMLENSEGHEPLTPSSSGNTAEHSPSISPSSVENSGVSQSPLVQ
The experiment in a line: ligand binding assay, RARβ. To be noted: RARβ receptor subtype; read-out: RAR Kd (nM) β. The source says:
(§1) A holoreceptor transactivation assay and a ligand binding assay which measure the antagonist/agonist like activity of the compounds of the invention, or their ability to bind to the several retinoid receptor subtypes, respectively, are described in published PCT Application No. WO WO93/11755 (particularly on pages 30-33 and 37-41) published on Jun. 24, 1993, the specification of which is also incorporated herein by reference. A detailed experimental procedure for holoreceptor transactivations has been described by Heyman et al. Cell 68, 397-406, (1992); Allegretto et al. J. Biol. Chem. 268, 26625-26633, and Mangelsdorf et al. The Retinoids: Biology, Chemistry and Medicine, pp 319-349, Raven Press Ltd., New York, which are expressly incorporated herein by reference. The results obtained in this assay are expressed in EC50 numbers, as they are also in the chimeric receptor transactivation assay. The results of ligand binding assay are expressed in Kd numbers. (See Cheng et al. Biochemical Pharmacology Vol. 22 pp 3099-3108, expressly incorporated herein by reference.)

For experiment [2], the target named is T2, RARγ (Homo sapiens, UniProt P13631).
T2 sequence (P13631 1-454): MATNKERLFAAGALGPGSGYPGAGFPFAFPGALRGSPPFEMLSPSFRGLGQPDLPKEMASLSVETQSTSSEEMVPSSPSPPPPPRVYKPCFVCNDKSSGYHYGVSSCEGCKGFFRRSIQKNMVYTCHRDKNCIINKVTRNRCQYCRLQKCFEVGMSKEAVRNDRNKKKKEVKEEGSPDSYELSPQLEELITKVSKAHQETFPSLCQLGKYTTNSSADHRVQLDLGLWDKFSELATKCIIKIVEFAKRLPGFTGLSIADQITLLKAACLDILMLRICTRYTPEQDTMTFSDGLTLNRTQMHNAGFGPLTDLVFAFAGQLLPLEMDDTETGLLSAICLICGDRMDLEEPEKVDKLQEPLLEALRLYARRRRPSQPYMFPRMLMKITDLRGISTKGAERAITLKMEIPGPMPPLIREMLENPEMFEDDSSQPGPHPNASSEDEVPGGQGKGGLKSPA
The experiment in a line: ligand binding assay, RARγ. To be noted: RARγ receptor subtype; read-out: RAR Kd (nM) γ.
From the text: as §1

Experiment [3] has as its target T3, RARα (Homo sapiens, UniProt P10276).
T3 sequence (P10276 1-462): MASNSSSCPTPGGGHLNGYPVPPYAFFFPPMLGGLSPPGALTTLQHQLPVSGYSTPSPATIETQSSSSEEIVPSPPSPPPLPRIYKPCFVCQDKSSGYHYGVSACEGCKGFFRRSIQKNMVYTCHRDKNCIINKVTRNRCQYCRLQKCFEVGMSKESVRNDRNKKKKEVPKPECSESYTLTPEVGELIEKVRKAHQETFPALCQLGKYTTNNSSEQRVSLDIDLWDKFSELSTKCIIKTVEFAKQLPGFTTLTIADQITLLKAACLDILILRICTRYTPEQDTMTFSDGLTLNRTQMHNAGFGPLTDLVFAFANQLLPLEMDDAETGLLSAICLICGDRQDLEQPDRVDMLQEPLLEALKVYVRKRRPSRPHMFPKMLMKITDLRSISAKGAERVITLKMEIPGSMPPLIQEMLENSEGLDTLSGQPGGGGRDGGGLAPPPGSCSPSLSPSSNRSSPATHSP
As to the kind of experiment: ligand binding assay, RARα. To be noted: RARα receptor subtype; read-out: RAR Kd (nM) α.
From the text: as §1

The values below come from patent publication US6620963B1, “TRICYCLO[6.2.202,7]DODECA-2(7),3,5-TRIEN-4-CARBONYLAMINO-PHENYL AND TRICYCLO[6.2.202,7]DODECA-2(7),3,5-TRIEN-4-CARBONYLAMINO-HETEROARYL AND RELATED COMPOUNDS HAVING RARα RECEPTOR SELECTIVE BIOLOGICAL ACTIVITY” (Allergan, Inc., priority 2002, dated 2003).

A word on the Kd: it is the free concentration of one partner at which half of the binding sites on the other are occupied at equilibrium, for simple one-to-one binding. In the case of `CC12CCC(C)(CC1)c1cc(C(=O)Nc3ccc(C(=O)O)c(F)c3)c(O)cc12` [Compound 8, 2-Fluoro-4-[(5-hydroxy-1,8-dimethyl-tricyclo[6.2.20^2,7]dodeca-2(7),3,5-trien-4-carbonyl)amino]benzoic Acid], the Kd in experiment [1] was 7200 nM; in experiment [2], above 10000 nM; in experiment [3] it was 53 nM.

On to `CC12CCC(C)(CC1)c1c2cc(C(=O)Nc2ccc(C(=O)O)c(F)c2)c(O)c1Br` [Compound 10, 4-[(6-Bromo-5-hydroxy-1,8-dimethyl-tricyclo[6.2.20^2,7]dodeca-2(7),3,5-trien-4-carbonyl)amino]-2-fluorobenzoic Acid], for which the results for the Kd in experiment [1], in experiment [2] and in experiment [3] were above 10000 nM, above 10000 nM and 32 nM, respectively.

On to `CC12CCC(C)(CC1)c1c2cc(C(=O)Nc2cc(F)c(C(=O)O)c(F)c2)c(O)c1Br` [Compound 14, 4-[(6-Bromo-5-hydroxy-1,8-dimethyl-tricyclo[6.2.20^2,7]dodeca-2(7),3,5-trien-4-carbonyl)amino]-2,6-difluorobenzoic Acid], for which the results for the Kd in experiment [1], in experiment [2] and in experiment [3] were above 10000 nM, above 10000 nM and 84 nM, respectively.
